Laboratory results from US5244892A, “Cephem compounds, and antibacterial agents” (Kyorin Pharmaceutical Co., Ltd., priority 1990, dated 1993).
In brackets after ≈: the same amount, converted by molar mass. Read-outs that look alike come from different tables or passages of the source.

Columns and labels:
Assay in all cases: in vitro antibacterial activity (minimum inhibitory concentration), standard method of the Japan Chemotherapy Society
Format in all cases: cell-based
[1] = test system: Staphylococcus aureus 209P; details: read-out: Minimum inhibitory concentration for growth
[2] = test system: S. epidermidis IID 866; details: Staphylococcus epidermidis
[3] = test system: Streptococcus pneumoniae Type III; details: read-out: Minimum inhibitory concentration for growth
[4] = test system: Escherichia coli ATCC 10536; details: ATCC10536, Gram (-), 10^6 cells/ml, read-out: Minimum inhibitory concentration for growth
[5] = test system: Klebsiella pneumoniae 1-220 S; details: 1220S, read-out: Minimum inhibitory concentration for growth
[6] = test system: Pseudomonas aeruginosa IFO 12689
[7] = IID866, Gram (+), 10^6 cells/ml, read-out: Minimum inhibitory concentration for growth
[8] = IFO12689, Gram (-), 10^6 cells/ml, read-out: Minimum inhibitory concentration for growth

SMILES	MIC ([1]; Gram (+), 10^6 cells/ml)	MIC [2, 7]	MIC ([3]; Gram (+), 10^6 cells/ml)	MIC [4]	MIC ([5]; Gram (-), 10^6 cells/ml)	MIC [6, 8]	MIC [1]	MIC ([2]; IID866, read-out: Minimum inhibitory concentration for growth)	MIC [3]	MIC [5]	MIC ([6]; IFO12689, read-out: Minimum inhibitory concentration for growth)
Nc1nc(/C(=N/OCC(=O)O)C(=O)N[C@@H]2C(=O)N3C(C(=O)O)=C(CSc4sc5cc(O)c(O)cc5c(=O)c4Br)CS[C@H]23)cs1 [Example 100, Disodium 7β-[(Z)-2-(2-aminothiazole-4-yl)-2-carboxymethoxyiminoacetamido]-3-(3-bromo-6,7-dihydroxy-4-oxo-4H-1-benzothiopyran-2-yl)thiomethyl-3-cephem-4-carboxylate]	12.5 µg/mL	12.5 µg/mL	3.13 µg/mL	≤ 0.0063 µg/mL	≤ 0.0063 µg/mL	0.1 µg/mL	–	–	–	–	–
CO/N=C(\C(=O)N[C@@H]1C(=O)N2C(C(=O)O)=C(CSc3cc(=O)c4cc(O)c(O)cc4s3)CS[C@H]12)c1csc(N)n1 [Example 75, Sodium 7β-[(Z)-2-(2-aminothiazole-4-yl)-2-methoxyiminoacetamido]-3-(6,7-dihydroxy-4-oxo-4H-1-benzothiopyran-2-yl) thiomethyl-3-cephem-4-carboxylate]	0.39 µg/mL	0.78 µg/mL	0.1 µg/mL	≤ 0.0063 µg/mL	≤ 0.0063 µg/mL	0.39 µg/mL	–	–	–	–	–
CO/N=C(\C(=O)N[C@@H]1C(=O)N2C(C(=O)O)=C(CSc3cc(=O)c4cc(O)c(O)cc4s3)CS[C@H]12)c1nsc(N)n1 [Example 90, Sodium 7β[(Z)-2-(5-amino-1,2,4-thiadiazole-3-yl)-2-methoxyiminoacetamido]-3-(6,7-dihydroxy-4-oxo-4H-1-benzothiopyran-2-yl) thiomethyl-3-cephem-4-carboxylate]	1.56 µg/mL	1.56 µg/mL	0.1 µg/mL	≤ 0.0063 µg/mL	≤ 0.0063 µg/mL	0.05 µg/mL	–	–	–	–	–
CO/N=C(\C(=O)N[C@@H]1C(=O)N2C(C(=O)O)=C(COC(C)=O)CS[C@H]12)c1csc(N)n1 [CTX, cefotaxime, reference compound]	0.78 µg/mL (≈ 1.71 µM)	0.78 µg/mL (≈ 1.71 µM)	0.1 µg/mL (≈ 0.22 µM)	0.025 µg/mL (≈ 0.0549 µM)	0.05 µg/mL (≈ 0.11 µM)	25 µg/mL (≈ 54.9 µM)	–	–	–	–	–
Nc1nc(/C(=N/OCC(=O)O)C(=O)N[C@@H]2C(=O)N3C(C(=O)O)=C(CSc4cc(=O)c5cc(O)c(O)cc5s4)CS[C@H]23)cs1 [Example 108, Disodium 7β-[(Z)-2-(2-aminothiazole-4-yl)-2-carboxymethoxyiminoacetamido]-3-(6,7-dihydroxy-4-oxo-4H-1-benzothiopyran-2-yl)thiomethyl-3-cephem-4-carboxylate]	6.25 µg/mL	12.5 µg/mL	0.78 µg/mL	≤ 0.0063 µg/mL	≤ 0.0063 µg/mL	0.05 µg/mL	–	–	–	–	–
CC(C)(O/N=C(\C(=O)N[C@@H]1C(=O)N2C(C(=O)[O-])=C(C[n+]3ccccc3)CS[C@H]12)c1csc(N)n1)C(=O)O [CAZ, ceftazidime, reference compound]	–	–	–	0.05 µg/mL (≈ 0.0915 µM)	–	–	3.13 µg/mL (≈ 5.73 µM)	3.13 µg/mL (≈ 5.73 µM)	0.39 µg/mL (≈ 0.714 µM)	0.2 µg/mL (≈ 0.366 µM)	3.13 µg/mL (≈ 5.73 µM)
CC(C)(O/N=C(\C(=O)N[C@@H]1C(=O)N2C(C(=O)O)=C(CSc3cc(=O)c4cc(O)c(O)cc4s3)CS[C@H]12)c1csc(N)n1)C(=O)O [Example 110, Disodium 7β-[(Z)-2-(2-aminothiazole-4-yl)-2-(1-carboxy-1-methylethoxy)iminoacetamido]-3-(6,7-dihydroxy-4-oxo-4H-1-benzothiopyran-2-yl)thiomethyl-3-cephem-4-carboxylate]	6.25 µg/mL	12.5 µg/mL	0.78 µg/mL	≤ 0.0063 µg/mL	≤ 0.0063 µg/mL	0.05 µg/mL	–	–	–	–	–
